Results reported in article PMC4481117 (Molecular Pain, 2015).

Columns and labels:
Assay type in all cases: cell-based, Human
[1] = system: Mac-1-HEK293 cells; experiment: Transwell migration of Mac-1-HEK293 cells to Dyn A; settings: 16 h at 37 °C
Method: Fig. 6 Migration of Mac-1-expressing cells to Dyn A in a Transwell system. a, Mac-1-expressing HEK 293 cells (100 μl at 3 × 10^6 cell/ml) were added to the upper wells of the transwell chamber and their ability to migrate to different concentrations of Dyn A placed in the lower chamber was analyzed. After 16 hours at 37 °C, migrated cells were fixed, stained, and counted. Data are presented as numbers of migrated cells per field ± S.E. for five random fields per well. The figure is representative of 5 experiments. b, Mac-1-expressing or wild-type HEK 293 cells were added to the upper wells of the transwell chamber and their ability to migrate to 10 μM Dyn A placed in the lower chamber was analyzed as in A. Some Mac-1-HEK293 cells were pretreated with 20 μg/ml of mAbs 44a (anti-αM), IB4 (anti-β2) or OKM1 (non function-blocking anti-αM) or medium alone before addition to the upper wells. ***, medium alone. Data are presented as the number of migrated cells per field ± S.E. for five random fields/well from 3 separate experiments. **, p < 0.01. c, migration of TG-elicited macrophages isolated from the peritoneum of wild-type and Mac-1-deficient mice. Macrophages (3x10^5) were placed in the upper chamber and allowed to migrate to Dyn A (10 μM) in the lower chamber for 90 min. The number of migrated cells was determined as in A. Data are presented as number of migrated cells per field ± S.E. for five random fields per well. The figure is representative of 3 experiments
Migration assays with wild-type and Mac-1-expressing HEK293 cells and purified macrophages using Transwell inserts (5 μm pore size) were performed as previously described. […] The photographs were taken using a 20x objective and cells in […] and cells were counted. […]

[2] = system: LFA-1 (αLβ2, CD11a/CD18); experiment: Adhesion of LFA-1-expressing HEK293 cells to immobilized peptide; settings: peptide immobilized at 10 μM, 30 min at 37 °C
Method: (§1) Fig. 3 Adhesion of Mac-1-expressing cells to Dyn A and Dyn B. a, Mac-1-expressing and wild-type HEK293 cells were labeled with calcein and 5x10^4 cells were added to the wells coated with different concentrations of the Dyn A. After 30 min at 37 °C, nonadherent cells were removed and fluorescence was measured. The data shown are means of triplicate determinations, and error bars represent S.E. The figure is representative of 8 experiments. b , adhesion of HEK293 cells expressing Mac-1, LFA and the I-less form of Mac-1 to Dyn A and Dyn B immobilized at 10 μM was determined as described in A. c, calcein-labeled Mac-1-HEK293 cells were preincubated without or with 10 μg/ml of anti-αM mAb 44a or 1 μg/ml NIF for 15 minutes. For testing the role of glucosaminoglycans in cell adhesion, dynorphin A-coated wells were preincubated with 100 μl of 10 μg/ml of chondroitin sulfate A, chondroitin sulfate B and heparin. […]
(§2) Adhesion assays were performed essentially as described previously. […] Fluorescence was measured in a CytoFluorII fluorescence plate reader (Perceptive Biosystems, Framingham, MA). […] After aspirating the solution, labeled cells were added and cell adhesion was analyzed as above.

[3] = system: I-less form of Mac-1; experiment: Adhesion of HEK293 cells expressing the I-less form of Mac-1; settings: peptide immobilized at 10 μM, 30 min at 37 °C
Method: as §1, §2

Structure (SMILES): CC[C@H](C)[C@H](NC(=O)[C@H](CCCNC(=N)N)NC(=O)[C@H](CCCNC(=N)N)NC(=O)[C@H](CC(C)C)NC(=O)[C@H](Cc1ccccc1)NC(=O)CNC(=O)CNC(=O)[C@@H](N)Cc1ccc(O)cc1)C(=O)N[C@@H](CCCNC(=N)N)C(=O)N1CCC[C@H]1C(=O)N[C@@H](CCCCN)C(=O)N[C@@H](CC(C)C)C(=O)N[C@@H](CCCCN)C(=O)N[C@@H](Cc1c[nH]c2ccccc12)C(=O)N[C@@H](CC(=O)O)C(=O)N[C@@H](CC(N)=O)C(=O)N[C@@H](CCC(N)=O)C(=O)O [Dyn A]
- Concentration at which migratory response reaches saturation ([1]; Transwell 5 μm): 5 µM
- Lowest concentration inducing migration ([1]; Transwell 5 μm): 0.5 to 1 µM
- Migration of Mac-1-HEK293 cells (in words) ([1]; Transwell): strong concentration-dependent migratory response
- Adhesion of LFA-1-HEK293 cells [2]: 13 ± 2%
- Adhesion of HEK293 cells expressing the I-less form of Mac-1 [3]: 7 ± 1%
